From patent US8754118B2, “Atropisomer of pyrrole derivative” (Daiichi Sankyo Company, Limited, priority 2007, dated 2014) come the findings set out here.

A short description of series [1]: Plasma pharmacokinetics after oral administration to cynomolgus monkeys (LC-MS/MS). The format is in vivo. The conditions noted are these: male cynomolgus monkey, 3 mg/kg to the stomach in 0.5% MC, fasted; for Cmax: po, read-out: Cmax: Maximum concentration. The method, then: Cynomolgus monkeys (male) were used, and the monkeys were fasted from one day before the test compound was administered. The administration sample was prepared by adding a 0.5% MC (methyl cellulose) solution to the test compound such that the dose was 3 mg/2 mL/kg. Each administration sample was administered to the stomach of the cynomolgus monkey using a tube. After the sample was administered, about 5 mL of water was administered. Each administration sample was administered to three cynomolgus monkeys in one group.
As for blood collection, about 1 mL of blood was collected from the femoral vein before administration, and […] 1, 2, 4, 6, 8, 24 and 48 hours after administration using an injection syringe treated with heparin. The collected blood was centrifuged (15,000×g, […], 4° C.) to obtain plasma. The obtained plasma was stored in a freezer (−20° C.) until pretreatment.
Preparation of Standard Solution and Internal Standard (IS) Solution: Each test compound was dissolved in acetonitrile, whereby a 1 mg/mL solution of each test compound was prepared. A standard solution was prepared by diluting each compound solution with acetonitrile. Further, sodium warfarin (Wako Pure Chemical Industries, Ltd.) was dissolved in acetonitrile to prepare a 500 ng/mL IS solution. Pretreatment of Plasma Sample: 50 μL of the plasma sample was taken out and 50 μL of acetonitrile was added thereto. For a calibration curve, 50 μL of each standard solution (acetonitrile solution) was added to 50 μL of the blank plasma. To all the samples, 150 μL of the IS acetonitrile solution was added, and the mixture was stirred, and then centrifuged (about 1,800×g, 30 min, 4° C.). After filtration was performed with Sirocco Protein Precipitation Plate (Waters Corporation), the filtrate was appropriately diluted with a mobile phase to prepare an LC-MS/MS analysis sample. Determination of Test Compound: The plasma concentration of each test compound was analyzed by the LC-MS/MS method. [HPLC Analysis Conditions]
Analysis: A pharmacokinetics parameter was calculated from the plasma concentration of each agent using WinNonlin Professional (Ver. 4.0.1, Pharsight Corporation). Incidentally, Noncompartment model was used as a model for calculation of the parameter.

Series [2] deals with T1, human mineralocorticoid receptor (hMR) ligand-binding domain (GAL4-hMR receptor) (Homo sapiens, UniProt P08235).
T1 construct: expressed in transfected cells; host or cells: HEK293
T1 sequence (P08235 726-964 limits assumed): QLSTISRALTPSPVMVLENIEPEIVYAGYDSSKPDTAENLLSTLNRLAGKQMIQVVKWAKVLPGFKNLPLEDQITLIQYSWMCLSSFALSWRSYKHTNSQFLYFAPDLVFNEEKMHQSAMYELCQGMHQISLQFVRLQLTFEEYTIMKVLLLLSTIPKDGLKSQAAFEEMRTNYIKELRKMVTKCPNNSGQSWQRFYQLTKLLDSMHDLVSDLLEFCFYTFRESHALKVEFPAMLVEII
Description: GAL4-hMR luciferase reporter assay in HEK293 cells in the presence of 1 nM aldosterone (mineralocorticoid receptor antagonistic activity). The format is cell-based. The following applies: for IC50: concentration giving Imax/2, HEK293, 1 nM aldosterone present, overnight incubation, read-out: ICmax50; for Imax: maximum value from the graph of relative luciferase activity, DMSO control = 0%, 1 nM aldosterone control = 100%. From the text: A plasmid pM-hMR-LBD which is obtained by ligation of a ligand-binding domain (LBD, corresponding to a region of about 308 amino acids at the carboxy terminus) of human mineralocorticoid receptor (hMR, NM_000901) to a DNA-binding domain (corresponding to a region of 147 amino acids at the amino terminus) of a yeast transcription factor GAL4 and expresses GAL4-hMR receptor was constructed. Using a reporter plasmid which has a sequence binding to the DNA-binding domain of GAL4 (UAS sequence) and contains a luciferase gene (such as pFR-Luc, a plasmid available from Stratagene Cloning Systems), a reporter assay was performed.
The previously obtained plasmid pM-hMR-LBD and the reporter plasmid were transfected into a human fetus-derived renal cell line HEK293 by the lipofection method. On the following day, the cells were treated with trypsin and collected. A white 96-well plate (manufactured by Costar, Inc.) was prepared, and the cells were dispensed into each well in an amount of 95 μL using a DMEM medium containing 5% FBS (fetal bovine serum) which had been treated with activated charcoal.
As for each test compound, solutions obtained by dissolving the test compound in dimethyl sulfoxide at predetermined concentrations were used, and the solutions were appropriately diluted with medium and added to the cells in the white 96-well plate to give a final concentration of 0.1%. When the test compound was added, 1 nM aldosterone was allowed to be present. A well group to which dimethyl sulfoxide was added was assigned Control 1 group; and a well group to which 1 nM aldosterone was added was assigned Control 2 group. After the addition, the plate was incubated overnight.
On the following day, the medium was removed, and a luciferase substrate (Wako Pure Chemical Industries, Ltd.) was prepared according to the package insert and added to each well in an amount of 50 μL, and then, the plate was stirred for about 30 minutes. The luminescence intensity of each well was measured using Analyst (manufactured by Molecular Devices Corporation) and taken as the luciferase activity. The luciferase activity value of Control 1 group was taken as 0%, the luciferase activity value of Control 2 group was taken as 100%, and relative luciferase activity values for the respective doses of the test compound in the test compound addition group were plotted to create a graph. From the graph, the maximum value was calculated as Imax (%), and the concentration of the test compound showing the value of Imax/2 was calculated as ICmax50 (M). In Table 1, ICmax50 values are shown.
In general terms: Reporter assays use an easily measured gene product as a stand-in for the process of interest.

For the molecule `Cc1c(C(=O)Nc2ccc(S(C)(=O)=O)cc2)cn(C)c1-c1ccccc1C(F)(F)F` (single isomer, unassigned) [Isomer B, (+)-1,4-dimethyl-N-[4-(methylsulfonyl)phenyl]-5-[2-(trifluoromethyl)phenyl]-1H-pyrrole-3-carboxamide], in series [1], the “AUC: Area under the plasma concentration versus time curve (0-48 hr.)” value came to 3.446 µg·h/mL and the Cmax amounted to 0.184 µg/mL. In series [2], the IC50 worked out at 2.6 nM and the Imax is listed as 123%.

As to `COc1ccc(-c2c(C)c(C(=O)Nc3ccc(S(C)(=O)=O)cc3)cn2CCO)c(C(F)(F)F)c1` (racemic) [Example 5, (+/−)-1-(2-hydroxyethyl)-5-[4-methoxy-2-(trifluoromethyl)phenyl]-4-methyl-N-[4-(methylsulfonyl)phenyl]-1H-pyrrole-3-carboxamide], in series [1], the “AUC: Area under the plasma concentration versus time curve (0-48 hr.)” value was 0.033 µg·h/mL and the Cmax was 0.002 µg/mL. For the same molecule, in series [2], the IC50 was 5.3 nM and the Imax came to 97%.

For the molecule `Cc1c(C(=O)Nc2ccc(S(C)(=O)=O)cc2)cn(CCO)c1-c1ccccc1C(F)(F)F` (single isomer, unassigned) [Isomer C, (+)-1-(2-hydroxyethyl)-4-methyl-N-[4-(methylsulfonyl)phenyl]-5-[2-(trifluoromethyl)phenyl]-1H-pyrrole-3-carboxamide], the IC50 in series [2] was greater than 1000 nM.

For `COc1ccc(-c2c(C)c(C(=O)Nc3ccc(S(C)(=O)=O)cc3)cn2CCO)c(C(F)(F)F)c1` (single isomer, unassigned) [Isomer E, (−)-1-(2-hydroxyethyl)-5-[4-methoxy-2-(trifluoromethyl)phenyl]-4-methyl-N-[4-(methylsulfonyl)phenyl]-1H-pyrrole-3-carboxamide], in series [1], the “AUC: Area under the plasma concentration versus time curve (0-48 hr.)” value came out at 7.187 µg·h/mL and the Cmax came to 0.681 µg/mL. Further, in series [2], the IC50 is 1.8 nM and the Imax is recorded as 115%.

Consider `Cc1c(C(=O)Nc2ccc(S(C)(=O)=O)cc2)cn(C)c1-c1ccccc1C(F)(F)F` (racemic) [Example 1, (+/−)-1,4-dimethyl-N-[4-(methylsulfonyl)phenyl]-5-[2-(trifluoromethyl)phenyl]-1H-pyrrole-3-carboxamide], for which, in series [1], the “AUC: Area under the plasma concentration versus time curve (0-48 hr.)” value is 0.86 µg·h/mL and the Cmax is 0.042 µg/mL. In series [2], the IC50 amounted to 13 nM and the Imax is reported as 95%.

As to `COc1ccc(-c2c(C)c(C(=O)Nc3ccc(S(C)(=O)=O)cc3)cn2CCO)c(C(F)(F)F)c1` (single isomer, unassigned) [Isomer F, (+)-1-(2-hydroxyethyl)-5-[4-methoxy-2-(trifluoromethyl)phenyl]-4-methyl-N-[4-(methylsulfonyl)phenyl]-1H-pyrrole-3-carboxamide], the IC50 in series [2] was greater than 1000 nM.

With `Cc1c(C(=O)Nc2ccc(S(C)(=O)=O)cc2)cn(CCO)c1-c1ccccc1C(F)(F)F` (single isomer, unassigned) [Isomer D, (−)-1-(2-hydroxyethyl)-4-methyl-N-[4-(methylsulfonyl)phenyl]-5-[2-(trifluoromethyl)phenyl]-1H-pyrrole-3-carboxamide], in series [1], the “AUC: Area under the plasma concentration versus time curve (0-48 hr.)” value amounted to 26.39 µg·h/mL and the Cmax came to 1.33 µg/mL. In series [2], the IC50 came out at 2.4 nM and the Imax stood at 99%.

Consider `Cc1c(C(=O)Nc2ccc(S(C)(=O)=O)cc2)cn(CCO)c1-c1ccccc1C(F)(F)F` (racemic) [Example 3, (+/−)-1-(2-hydroxyethyl)-4-methyl-N-[4-(methylsulfonyl)phenyl]-5-[2-(trifluoromethyl)phenyl]-1H-pyrrole-3-carboxamide], for which, in series [1], the “AUC: Area under the plasma concentration versus time curve (0-48 hr.)” value was determined as 7.667 µg·h/mL and the Cmax was determined as 0.38 µg/mL. Further, in series [2], the Imax was 105%.

For `Cc1c(C(=O)Nc2ccc(S(C)(=O)=O)cc2)cn(C)c1-c1ccccc1C(F)(F)F` (single isomer, unassigned) [Isomer A, (−)-1,4-dimethyl-N-[4-(methylsulfonyl)phenyl]-5-[2-(trifluoromethyl)phenyl]-1H-pyrrole-3-carboxamide], the IC50 in series [2] was greater than 1000 nM.
